Measured values from patent US20230172971A1, “ANTIBIOTIC AND ANTI-INFLAMMATORY COMPOSITIONS AND METHODS OF USE” (priority 2020, published 2023).
In brackets after ≈: the same amount, converted by molar mass. Read-outs that look alike come from different tables or passages of the source.

Legend:
[1] = test system: Pseudomonas aeruginosa strain BAA-47; assay: Checkerboard assay azithromycin + 600-Da BPEI, P. aeruginosa BAA-47; assay type: cell-based
Procedure: (§1) Checkerboard assays were conducted to identify synergy between BPEI and antibiotics against bacteria. Serial dilutions of antimicrobial agents (BPEI and antibiotic solutions) were added to a 96-well microtiter plate with 100 μL CAMHB per well. Untreated control and positive control (5% bleach) were also conducted. Bacterial inoculation (5×10^5 CFU/mL) from an overnight culture was added to the plate (1 μL/well) and incubated at 37° C. for 20 hr. The change in optical density at 600 nm (ΔOD600) was measured using a Tecan Infinite M20 plate reader immediately after inoculation Minimum inhibitory concentration (MIC) of each drug is determined as the lowest concentration that inhibited cell growth (ΔOD600<0.05). Fractional inhibitory concentration index (FICI) and synergistic effects are determined using EUCAST guidelines: synergy (FICI≤0.5), additivity (0.5<FICI<1), and indifference (FICI>1). Each assay was done in triplicate.

PA OU19 [2] = assay: MicroScan Walkaway MIC panel, PA OU19; assay type: cell-based, P. aeruginosa
MRSA OU6 [3] = assay: MicroScan Walkaway MIC panel, MRSA OU6; assay type: cell-based, Staphylococcus aureus; conditions: for MIC: Staphylococcus aureus
Text: (§2) The multi-drug resistance characteristics of the clinical isolates was confirmed using the Beckman Coulter MicroScan Walkaway™ 96plus with the PC33 gram positive panel. The MIC values are listed below.

MRSA OU11 [4] = assay: MicroScan Walkaway MIC panel, MRSA OU11; assay type: cell-based, Staphylococcus aureus; conditions: for MIC: Staphylococcus aureus
Text: as §2

PA OU19 [5] = assay: Checkerboard assay erythromycin + 600-Da BPEI, PA OU19; assay type: cell-based, P. aeruginosa
Procedure: as §1

MRSA OU11 [6] = assay: Checkerboard assay erythromycin + 600-Da BPEI, MRSA OU11; assay type: cell-based, Staphylococcus aureus; conditions: for MIC Antibiotic: MRSA OU11, antibiotic alone
Procedure: as §1

MRSA OU6 [7] = assay: Checkerboard assay erythromycin + 600-Da BPEI, MRSA OU6; assay type: cell-based, Staphylococcus aureus; conditions: for MIC Antibiotic: MRSA OU6, antibiotic alone
Procedure: as §1

E. coli BAA-2452 = assay: Checkerboard assay, CRE E. coli BAA-2452 (NDM-1); assay type: cell-based, Escherichia coli; conditions: NDM-1 strain; over the susceptibility breakpoint
Procedure: (§3) Checkerboard assays were used to determine the synergistic effect between PEG350-BPEI or 600 Da BPEI and antibiotics against drug resistant strains growing in cation-adjusted Mueller-Hinton broth (CAMHB). […] Cells were grown at 37° C. The change in OD600 (optical density at 600 nm) was measured and recorded after 24 hr of treatment. Each checkerboard trial was done in triplicate using sterile Greiner CellStar™ flat bottom polystyrene plates, catalog #655180.

K. pneumoniae BAA-2146 = assay: Checkerboard assay, CRE K. pneumoniae BAA-2146 (NDM-1); assay type: cell-based, Klebsiella pneumoniae; conditions: NDM-1 strain; over the susceptibility breakpoint
Procedure: as §3

[8] = test system: K. pneumoniae BAA-1705(blaKPC+/blaNDM−); assay: Checkerboard assay, CRE K. pneumoniae BAA-1705 (blaKPC+/blaNDM-); assay type: cell-based, Klebsiella pneumoniae; conditions: FIGS. 11A and 11C
Procedure: as §3

[9] = test system: HEKa cells (primary human epithelial keratinocytes); assay: Cytokine release (IL-8, IL-6, TNF-alpha) by HEKa cells, Quantikine ELISA; assay type: cell-based; conditions: PG or LPS 5 μg/mL, 24 hr; for TNF-α concentration released by HEKa cells: untreated control <10; for IL-6 concentration released by HEKa cells: untreated control <50
Procedure: (§4) Materials included HEKa cells (primary human epithelial keratinocytes; Invitrogen), Epilife Medium and growth supplement (Invitrogen), lipopolysaccharides from Escherichia coli O111:B4 (Sigma), peptidoglycan from Staphylococcus aureus (Sigma), and Human (IL-8/CXCL8, IL-6, TNF-alpha) Quantikine ELISA Kits (R&D). HEKa cells were seeded in T-75 tissue culture flasks with Epilife media supplemented with human keratinocyte growth supplement 100 ug/mL and 100 U/mL of pen/strep and incubated at 37° C. in a CO2 incubator. Fresh media was replaced every 2 days. Until the cell confluence reach 80-90%, they were split into a new passage. To avoid cell senescence, all experiments were performed with cells at passage 3-7. HEKa cells were cultured in a new 24-well plate until 80-90% confluence (total V=1 mL/well). […] The cell media was collected in 1.5 mL Eppendorf microtubes and stored at −20° C. until ELISA assays were performed. Concentrations of IL-8, IL-6, TNF-α cytokines released into the media were quantified followed the instructions of Quantikine Colorimetric ELISA assay kits (R&D Systems). Absorbance was measured at 450 nm and 570 nm. Final corrected absorbance was the subtraction […].
as §4, with “HEKa” for “Materials included HEKa cells (primary human epithelial keratinocytes; Invitrogen), Epilife Medium and growth supplement (Invitrogen), lipopolysaccharides from Escherichia coli O111:B4 (Sigma), peptidoglycan from Staphylococcus aureus (Sigma), and Human (IL-8/CXCL8, IL-6, TNF-alpha) Quantikine ELISA Kits (R&D). HEKa”, “senescent,” for “senescence,”, “volume=1” for “V=1”, “IL-8 cytokine” for “IL-8, IL-6, TNF-α cytokines”

[10] = Pseudomonas aeruginosa, read-out: MIC
[11] = MRSA OU6, MicroScan, read-out: MIC
[12] = MRSA OU11, MicroScan, read-out: MIC
[13] = PA OU19, erythromycin + 600-Da BPEI
[14] = MRSA OU11, erythromycin + 600-Da BPEI
[15] = MRSA OU6, erythromycin + 600-Da BPEI

| Molecule | susceptibility interpretation (PA OU19 [2]) | MIC (MRSA OU6 [3]; [11]) | MIC (MRSA OU11 [4]; [12]) | susceptibility interpretation (MRSA OU6 [3]; MRSA OU6, MicroScan) | susceptibility interpretation (MRSA OU11 [4]; MRSA OU11, MicroScan) | other results |
| --- | --- | --- | --- | --- | --- | --- |
| CC[C@H]1OC(=O)[C@H](C)[C@@H](O[C@H]2C[C@@](C)(OC)[C@@H](O)[C@H](C)O2)[C@H](C)[C@@H](O[C@@H]2O[C@H](C)C[C@H](N(C)C)[C@H]2O)[C@](C)(O)C[C@@H](C)CN(C)[C@H](C)[C@@H](O)[C@]1(C)O [azithromycin] | – | – | – | – | – | growth inhibition by the combination with 600-Da BPEI [1]: inhibits growth |
| C[C@H]1[C@H](NC(=O)/C(=N\OC(C)(C)C(=O)O)c2csc(N)n2)C(=O)N1S(=O)(=O)O [aztreonam] | resistant | – | – | – | – | MIC (PA OU19 [2]; [10]): 16 µg/mL (≈ 36.7 µM) |
| CO/N=C(\C(=O)N[C@@H]1C(=O)N2C(C(=O)[O-])=C(C[N+]3(C)CCCC3)CS[C@H]12)c1csc(N)n1 [cefepime] | resistant | – | – | – | – | MIC (PA OU19 [2]; [10]): 16 µg/mL (≈ 33.3 µM) |
| CC(C)(O/N=C(\C(=O)N[C@@H]1C(=O)N2C(C(=O)[O-])=C(C[n+]3ccccc3)CS[C@H]12)c1csc(N)n1)C(=O)O [ceftazidime] | resistant | – | – | – | – | MIC (PA OU19 [2]; [10]): 16 µg/mL (≈ 29.3 µM) |
| CCC[C@@H]1C[C@@H](C(=O)N[C@@H]([C@H]2O[C@H](SC)[C@H](O)[C@@H](O)[C@H]2O)[C@H](C)Cl)N(C)C1 [clindamycin] | – | > 4 µg/mL | > 4 µg/mL | – | – | – |
| CCCCCCCCCC(=O)N[C@@H](Cc1c[nH]c2ccccc12)C(=O)N[C@H](CC(N)=O)C(=O)N[C@@H](CC(=O)O)C(=O)N[C@@H]1C(=O)NCC(=O)N[C@@H](CCCN)C(=O)N[C@@H](CC(=O)O)C(=O)N[C@H](C)C(=O)N[C@@H](CC(=O)O)C(=O)NCC(=O)N[C@H](CO)C(=O)N[C@@H]([C@H](C)CC(=O)O)C(=O)N[C@@H](CC(=O)c2ccccc2N)C(=O)O[C@@H]1C [daptomycin] | – | ≤ 0.5 µg/mL | ≤ 0.5 µg/mL | susceptible | susceptible | – |
| CC[C@H]1OC(=O)[C@H](C)[C@@H](O[C@H]2C[C@@](C)(OC)[C@@H](O)[C@H](C)O2)[C@H](C)[C@@H](O[C@@H]2O[C@H](C)C[C@H](N(C)C)[C@H]2O)[C@](C)(O)C[C@@H](C)C(=O)[C@H](C)[C@@H](O)[C@]1(C)O [erythromycin] | – | > 4 µg/mL | > 4 µg/mL | resistant | resistant | FICI (PA OU19 [5]; [13]): 0.26; Outcome (PA OU19 [5]; [13]): Synergy; MIC Antibiotic with 16 μg/ml BPEI (PA OU19 [5]; PA OU19, with 16 μg/ml 600-Da BPEI): 2 µg/mL; MIC Antibiotic (MRSA OU11 [6]): over 2000 μg/mL; MIC Antibiotic (MRSA OU11 [6]; listed as Erythromycin): >2000 µg/mL; FICI (MRSA OU11 [6]; [14]): 0.31; Outcome (MRSA OU11 [6]; [14]): Synergy; MIC Antibiotic (MRSA OU6 [7]): over 2000 μg/mL; MIC Antibiotic (MRSA OU6 [7]; listed as Erythromycin): >2000 µg/mL; FICI (MRSA OU6 [7]; [15]): 0.26; Outcome (MRSA OU6 [7]; [15]): Synergy; MIC Antibiotic with 16 μg/ml BPEI (MRSA OU6 [7]; MRSA OU6, with 16 μg/ml 600-Da BPEI): 8 µg/mL |
| C[C@@H](O)[C@H]1C(=O)N2C(C(=O)O)=C(SCCN=CN)C[C@H]12 [imipenem] | – | – | – | – | – | MIC of the carbapenem without potentiator (E. coli BAA-2452): > 2 µg/mL; MIC of the carbapenem without potentiator (K. pneumoniae BAA-2146): > 2 µg/mL |
| CC(=O)NC[C@H]1CN(c2ccc(N3CCOCC3)c(F)c2)C(=O)O1 [linezolid] | – | 2 µg/mL (≈ 5.93 µM) | 2 µg/mL (≈ 5.93 µM) | susceptible | susceptible | – |
| C[C@@H](O)[C@H]1C(=O)N2C(C(=O)O)=C(S[C@@H]3CN[C@H](C(=O)N(C)C)C3)[C@H](C)[C@H]12 [meropenem] | resistant | – | – | – | – | MIC (PA OU19 [2]; [10]): 8 µg/mL (≈ 20.9 µM); MIC of the carbapenem without potentiator (E. coli BAA-2452): > 8 µg/mL; susceptibility of the strain to the carbapenem [8]: resistant; MIC of the carbapenem without potentiator (K. pneumoniae BAA-2146): > 8 µg/mL |
| Cc1onc(-c2ccccc2)c1C(=O)N[C@@H]1C(=O)N2[C@@H]1SC(C)(C)[C@@H]2C(=O)O [oxacillin] | – | > 2 µg/mL | > 2 µg/mL | resistant | resistant | – |
| CN(C)[C@@H]1C(O)=C(C(N)=O)C(=O)[C@@]2(O)C(O)=C3C(=O)c4c(O)cccc4[C@@](C)(O)[C@H]3C[C@@H]12 [tetracycline] | – | ≤ 4 µg/mL | ≤ 4 µg/mL | – | – | – |
| NC[C@H]1O[C@H](O[C@H]2[C@H](O)[C@@H](O[C@H]3O[C@H](CO)[C@@H](O)[C@H](N)[C@H]3O)[C@H](N)C[C@@H]2N)[C@H](N)C[C@@H]1O [tobramycin] | susceptible | – | – | – | – | MIC (PA OU19 [2]; [10]): 4 µg/mL (≈ 8.56 µM) |
| CN[C@H](CC(C)C)C(=O)N[C@H]1C(=O)N[C@@H](CC(N)=O)C(=O)N[C@H]2C(=O)N[C@H]3C(=O)N[C@H](C(=O)N[C@H](C(=O)O)c4cc(O)cc(O)c4-c4cc3ccc4O)[C@H](O)c3ccc(c(Cl)c3)Oc3cc2cc(c3O[C@@H]2O[C@H](CO)[C@@H](O)[C@H](O)[C@H]2O[C@H]2C[C@](C)(N)[C@H](O)[C@H](C)O2)Oc2ccc(cc2Cl)[C@H]1O [vancomycin] | – | – | – | susceptible | susceptible | MIC (MRSA OU6 [3]; MRSA): 2 µg/mL (≈ 1.38 µM); MIC (MRSA OU11 [4]; MRSA): 1 µg/mL (≈ 0.69 µM) |
| gentamicin | susceptible | – | – | susceptible | susceptible | MIC (PA OU19 [2]): 4 µg/mL |
| lipopolysaccharide [LPS] | – | – | – | – | – | TNF-α concentration released by HEKa cells [9]: ~30 pg/mL; IL-6 concentration released by HEKa cells [9]: ~350 pg/mL |
| peptidoglycan [PG] | – | – | – | – | – | TNF-α concentration released by HEKa cells [9]: ~30 pg/mL; IL-6 concentration released by HEKa cells [9]: ~350 pg/mL |
